From article PMC11167047 (Cell Death Discovery, 2024)

Legend:
Assay in all cases: kinome screen (33PanQinase)
Assay type in all cases: biochemical
CDK13/CycK = target: T1, CDK13/CycK (Homo sapiens, UniProt Q14004)
T1 construct: purchased Reaction Biology Europe GmbH (formerly ProQinase)
Protocol: (§1) The Kinome Screening was performed by Reaction Biology Europe GmbH (http://reactionbiology.com; Freiburg i. Br., Germany).

PAK4 = target: T2, PAK4 (Homo sapiens, UniProt O96013)
T2 construct: purchased Reaction Biology Europe GmbH (formerly ProQinase)
T2 sequence (O96013 whole entry): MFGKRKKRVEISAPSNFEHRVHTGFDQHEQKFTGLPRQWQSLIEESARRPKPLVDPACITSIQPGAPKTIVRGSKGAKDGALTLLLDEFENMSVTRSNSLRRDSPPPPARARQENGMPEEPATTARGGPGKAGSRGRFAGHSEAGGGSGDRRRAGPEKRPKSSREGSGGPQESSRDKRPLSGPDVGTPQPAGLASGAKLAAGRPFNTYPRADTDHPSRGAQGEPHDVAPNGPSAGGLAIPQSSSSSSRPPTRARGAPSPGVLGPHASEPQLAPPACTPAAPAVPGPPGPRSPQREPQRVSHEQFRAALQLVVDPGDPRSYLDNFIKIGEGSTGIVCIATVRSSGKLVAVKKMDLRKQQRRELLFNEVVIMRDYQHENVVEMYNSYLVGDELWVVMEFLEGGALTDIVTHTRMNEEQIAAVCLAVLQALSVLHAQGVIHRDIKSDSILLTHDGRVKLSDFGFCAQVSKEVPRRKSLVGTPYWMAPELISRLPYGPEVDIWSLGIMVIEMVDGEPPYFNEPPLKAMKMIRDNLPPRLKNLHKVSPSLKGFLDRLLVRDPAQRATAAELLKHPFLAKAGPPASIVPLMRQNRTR
Protocol: as §1

PAK7 = target: T3, PAK7 (Homo sapiens, UniProt Q9P286)
T3 construct: purchased Reaction Biology Europe GmbH (formerly ProQinase)
T3 sequence (Q9P286 whole entry): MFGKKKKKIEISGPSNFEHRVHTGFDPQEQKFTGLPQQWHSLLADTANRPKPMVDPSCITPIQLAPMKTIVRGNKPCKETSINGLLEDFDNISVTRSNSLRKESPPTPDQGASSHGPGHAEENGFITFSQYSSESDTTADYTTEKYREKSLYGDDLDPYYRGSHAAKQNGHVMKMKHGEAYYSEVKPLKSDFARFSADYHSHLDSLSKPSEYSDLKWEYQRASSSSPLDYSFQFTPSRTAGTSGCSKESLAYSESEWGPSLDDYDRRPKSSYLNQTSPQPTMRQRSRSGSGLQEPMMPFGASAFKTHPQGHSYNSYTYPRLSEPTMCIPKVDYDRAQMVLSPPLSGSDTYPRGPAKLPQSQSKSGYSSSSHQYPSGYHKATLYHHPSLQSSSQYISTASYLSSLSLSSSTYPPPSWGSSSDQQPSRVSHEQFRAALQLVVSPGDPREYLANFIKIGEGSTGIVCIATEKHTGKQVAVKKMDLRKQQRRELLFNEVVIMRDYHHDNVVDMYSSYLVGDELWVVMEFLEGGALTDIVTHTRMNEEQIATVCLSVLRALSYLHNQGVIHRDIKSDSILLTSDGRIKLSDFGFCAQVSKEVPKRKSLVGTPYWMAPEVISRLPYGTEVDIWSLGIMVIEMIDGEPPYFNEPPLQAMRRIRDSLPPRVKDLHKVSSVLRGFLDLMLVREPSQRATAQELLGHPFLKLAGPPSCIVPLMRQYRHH
Protocol: as §1

PDGFRα = target: T4, PDGFRα (Homo sapiens, UniProt P16234)
T4 construct: purchased Reaction Biology Europe GmbH (formerly ProQinase)
T4 sequence (P16234 24-1089): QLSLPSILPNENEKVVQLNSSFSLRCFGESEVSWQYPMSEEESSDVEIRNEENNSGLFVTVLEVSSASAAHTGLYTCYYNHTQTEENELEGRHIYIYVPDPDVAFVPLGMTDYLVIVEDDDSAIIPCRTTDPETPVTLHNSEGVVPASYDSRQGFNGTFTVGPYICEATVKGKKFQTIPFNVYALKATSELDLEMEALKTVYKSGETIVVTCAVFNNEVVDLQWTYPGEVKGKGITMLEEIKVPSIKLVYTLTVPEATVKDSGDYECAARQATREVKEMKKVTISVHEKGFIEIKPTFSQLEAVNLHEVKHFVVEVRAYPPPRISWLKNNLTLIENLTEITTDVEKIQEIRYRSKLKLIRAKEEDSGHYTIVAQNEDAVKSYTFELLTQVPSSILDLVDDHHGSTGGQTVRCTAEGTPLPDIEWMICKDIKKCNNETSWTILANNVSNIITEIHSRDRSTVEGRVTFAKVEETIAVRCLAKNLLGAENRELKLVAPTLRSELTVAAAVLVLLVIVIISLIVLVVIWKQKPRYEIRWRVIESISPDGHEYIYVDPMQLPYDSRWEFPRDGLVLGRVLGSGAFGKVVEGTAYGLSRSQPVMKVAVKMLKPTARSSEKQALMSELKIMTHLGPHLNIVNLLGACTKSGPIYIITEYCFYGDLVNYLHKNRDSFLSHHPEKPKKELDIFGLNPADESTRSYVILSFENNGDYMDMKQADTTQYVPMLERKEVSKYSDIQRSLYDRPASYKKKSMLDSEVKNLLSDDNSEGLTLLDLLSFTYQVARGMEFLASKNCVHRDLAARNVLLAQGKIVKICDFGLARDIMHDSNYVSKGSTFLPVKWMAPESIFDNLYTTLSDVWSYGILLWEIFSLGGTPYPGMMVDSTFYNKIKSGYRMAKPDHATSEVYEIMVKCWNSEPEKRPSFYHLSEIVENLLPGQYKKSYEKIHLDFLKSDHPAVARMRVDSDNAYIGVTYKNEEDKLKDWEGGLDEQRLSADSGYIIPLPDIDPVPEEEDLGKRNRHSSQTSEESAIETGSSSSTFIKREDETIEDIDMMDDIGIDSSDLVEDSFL
Protocol: as §1

PRKG2 = target: T5, PRKG2 (Homo sapiens, UniProt Q13237)
T5 construct: purchased Reaction Biology Europe GmbH (formerly ProQinase)
T5 sequence (Q13237 1-762): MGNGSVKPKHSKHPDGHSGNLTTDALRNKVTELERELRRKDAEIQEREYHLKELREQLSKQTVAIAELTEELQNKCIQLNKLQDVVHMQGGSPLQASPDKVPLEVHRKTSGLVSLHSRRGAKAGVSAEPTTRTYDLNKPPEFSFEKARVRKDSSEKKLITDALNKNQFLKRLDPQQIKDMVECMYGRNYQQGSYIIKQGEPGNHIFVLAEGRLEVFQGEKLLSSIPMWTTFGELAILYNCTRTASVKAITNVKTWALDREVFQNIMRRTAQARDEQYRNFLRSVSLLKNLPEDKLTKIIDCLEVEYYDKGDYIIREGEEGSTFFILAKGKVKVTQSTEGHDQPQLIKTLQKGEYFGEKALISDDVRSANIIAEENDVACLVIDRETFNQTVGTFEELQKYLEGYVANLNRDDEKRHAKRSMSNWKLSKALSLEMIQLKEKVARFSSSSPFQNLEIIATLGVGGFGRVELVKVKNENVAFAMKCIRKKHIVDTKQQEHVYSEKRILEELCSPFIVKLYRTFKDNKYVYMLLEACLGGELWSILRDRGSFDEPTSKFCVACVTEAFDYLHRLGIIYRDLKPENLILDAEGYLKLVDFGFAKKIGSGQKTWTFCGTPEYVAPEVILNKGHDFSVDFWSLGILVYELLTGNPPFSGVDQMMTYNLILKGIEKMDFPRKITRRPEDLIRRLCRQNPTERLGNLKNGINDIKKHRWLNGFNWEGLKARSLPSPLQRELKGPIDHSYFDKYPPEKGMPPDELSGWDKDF
Protocol: as §1

TAOK2 = target: T6, TAOK2 (Homo sapiens, UniProt Q9UL54)
T6 construct: purchased Reaction Biology Europe GmbH (formerly ProQinase)
T6 sequence (Q9UL54 1-1235): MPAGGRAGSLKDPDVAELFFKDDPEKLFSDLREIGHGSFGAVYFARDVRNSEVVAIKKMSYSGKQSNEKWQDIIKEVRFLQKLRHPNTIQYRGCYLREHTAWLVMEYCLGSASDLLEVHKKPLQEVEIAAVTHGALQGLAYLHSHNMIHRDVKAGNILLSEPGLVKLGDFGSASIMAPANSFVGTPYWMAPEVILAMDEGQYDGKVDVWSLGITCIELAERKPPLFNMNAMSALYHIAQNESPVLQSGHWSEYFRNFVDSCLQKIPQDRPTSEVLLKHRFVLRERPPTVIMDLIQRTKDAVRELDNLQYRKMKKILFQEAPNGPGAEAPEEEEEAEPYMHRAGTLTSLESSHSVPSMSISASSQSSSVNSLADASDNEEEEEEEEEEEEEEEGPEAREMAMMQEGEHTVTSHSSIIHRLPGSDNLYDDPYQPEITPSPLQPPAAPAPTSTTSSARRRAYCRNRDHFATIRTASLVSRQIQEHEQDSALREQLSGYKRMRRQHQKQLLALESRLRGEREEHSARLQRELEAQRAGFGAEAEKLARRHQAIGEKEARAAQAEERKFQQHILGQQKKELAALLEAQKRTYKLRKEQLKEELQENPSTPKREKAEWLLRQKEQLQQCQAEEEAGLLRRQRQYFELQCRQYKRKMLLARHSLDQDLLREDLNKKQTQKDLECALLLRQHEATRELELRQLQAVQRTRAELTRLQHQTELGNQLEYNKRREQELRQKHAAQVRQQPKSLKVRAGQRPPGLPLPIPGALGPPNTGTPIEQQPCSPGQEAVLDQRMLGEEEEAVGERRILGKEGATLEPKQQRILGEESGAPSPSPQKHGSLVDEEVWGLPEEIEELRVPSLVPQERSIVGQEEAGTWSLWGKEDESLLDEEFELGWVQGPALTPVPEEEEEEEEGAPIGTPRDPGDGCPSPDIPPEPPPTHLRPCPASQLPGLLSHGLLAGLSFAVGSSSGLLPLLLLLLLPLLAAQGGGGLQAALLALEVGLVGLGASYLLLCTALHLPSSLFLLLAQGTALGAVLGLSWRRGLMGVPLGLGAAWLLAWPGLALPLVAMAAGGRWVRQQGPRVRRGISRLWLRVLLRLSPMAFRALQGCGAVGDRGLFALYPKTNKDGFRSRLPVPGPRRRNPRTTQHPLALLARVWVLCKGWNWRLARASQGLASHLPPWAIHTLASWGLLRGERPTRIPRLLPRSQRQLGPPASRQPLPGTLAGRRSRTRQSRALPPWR
Protocol: as §1

T1 sequence (Q14004 whole entry): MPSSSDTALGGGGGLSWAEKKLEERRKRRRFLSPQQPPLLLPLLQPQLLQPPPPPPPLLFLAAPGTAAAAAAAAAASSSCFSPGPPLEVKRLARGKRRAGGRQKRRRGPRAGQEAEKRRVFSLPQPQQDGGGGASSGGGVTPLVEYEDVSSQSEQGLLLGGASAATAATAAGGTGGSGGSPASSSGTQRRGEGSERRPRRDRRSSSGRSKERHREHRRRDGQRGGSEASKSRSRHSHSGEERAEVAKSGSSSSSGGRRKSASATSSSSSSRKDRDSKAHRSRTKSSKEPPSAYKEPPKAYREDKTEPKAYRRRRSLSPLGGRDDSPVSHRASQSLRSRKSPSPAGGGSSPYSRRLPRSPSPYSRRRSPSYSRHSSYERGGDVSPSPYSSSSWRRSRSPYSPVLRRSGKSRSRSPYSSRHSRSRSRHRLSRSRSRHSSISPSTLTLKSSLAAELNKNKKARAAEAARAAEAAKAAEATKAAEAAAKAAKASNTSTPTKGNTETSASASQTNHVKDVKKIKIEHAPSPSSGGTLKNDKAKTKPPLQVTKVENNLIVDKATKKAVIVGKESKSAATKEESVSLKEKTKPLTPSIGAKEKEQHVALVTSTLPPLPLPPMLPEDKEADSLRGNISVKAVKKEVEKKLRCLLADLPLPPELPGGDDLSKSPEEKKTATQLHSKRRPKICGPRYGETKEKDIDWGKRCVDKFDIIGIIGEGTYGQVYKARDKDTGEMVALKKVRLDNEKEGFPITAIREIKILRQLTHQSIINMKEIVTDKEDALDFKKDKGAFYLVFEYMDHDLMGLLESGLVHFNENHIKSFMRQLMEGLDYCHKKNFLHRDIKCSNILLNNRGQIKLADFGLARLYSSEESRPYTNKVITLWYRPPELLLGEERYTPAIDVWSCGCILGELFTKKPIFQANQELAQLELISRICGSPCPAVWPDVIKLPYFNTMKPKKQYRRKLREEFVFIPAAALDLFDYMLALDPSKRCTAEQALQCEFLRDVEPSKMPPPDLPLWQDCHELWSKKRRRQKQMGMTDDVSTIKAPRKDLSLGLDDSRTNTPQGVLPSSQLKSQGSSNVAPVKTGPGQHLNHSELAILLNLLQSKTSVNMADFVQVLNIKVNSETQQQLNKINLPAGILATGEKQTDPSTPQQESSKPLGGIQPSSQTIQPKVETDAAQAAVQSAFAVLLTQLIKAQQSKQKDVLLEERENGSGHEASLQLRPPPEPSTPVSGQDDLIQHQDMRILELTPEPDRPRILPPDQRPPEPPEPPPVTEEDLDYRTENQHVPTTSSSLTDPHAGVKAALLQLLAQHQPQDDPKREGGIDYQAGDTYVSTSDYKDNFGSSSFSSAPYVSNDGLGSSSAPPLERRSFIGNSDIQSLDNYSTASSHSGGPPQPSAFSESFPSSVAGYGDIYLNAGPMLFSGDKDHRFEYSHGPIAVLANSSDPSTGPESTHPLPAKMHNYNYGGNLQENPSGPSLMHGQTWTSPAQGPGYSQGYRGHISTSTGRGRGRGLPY
T1 sequence (O75909 whole entry partner): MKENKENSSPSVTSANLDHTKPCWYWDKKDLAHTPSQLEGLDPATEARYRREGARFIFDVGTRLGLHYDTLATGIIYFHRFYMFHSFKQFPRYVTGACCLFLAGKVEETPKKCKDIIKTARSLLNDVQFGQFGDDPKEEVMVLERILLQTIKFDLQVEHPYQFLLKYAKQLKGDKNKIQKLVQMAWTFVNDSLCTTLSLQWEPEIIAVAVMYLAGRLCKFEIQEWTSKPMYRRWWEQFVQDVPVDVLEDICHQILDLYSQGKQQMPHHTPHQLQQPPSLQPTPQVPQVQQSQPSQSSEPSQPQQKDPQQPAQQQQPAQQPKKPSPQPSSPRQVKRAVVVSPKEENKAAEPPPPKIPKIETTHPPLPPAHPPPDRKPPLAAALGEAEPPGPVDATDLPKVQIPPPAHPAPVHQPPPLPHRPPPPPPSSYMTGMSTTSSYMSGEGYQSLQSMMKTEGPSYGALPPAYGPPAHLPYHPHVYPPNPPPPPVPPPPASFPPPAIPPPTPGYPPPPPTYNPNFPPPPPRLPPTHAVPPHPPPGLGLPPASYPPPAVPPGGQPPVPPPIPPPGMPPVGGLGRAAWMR

SMILES | residual kinase activity (CDK13/CycK; 0.03 µM) | residual kinase activity (CDK13/CycK; 0.3 µM) | residual kinase activity (PAK4; 0.03 µM) | residual kinase activity (PAK4; 0.3 µM) | residual kinase activity (PAK7; 0.03 µM) | residual kinase activity (PAK7; 0.3 µM) | residual kinase activity (PDGFRα; 0.03 µM) | residual kinase activity (PDGFRα; 0.3 µM) | residual kinase activity (PRKG2; 0.03 µM) | residual kinase activity (PRKG2; 0.3 µM) | residual kinase activity (TAOK2; 0.03 µM) | residual kinase activity (TAOK2; 0.3 µM) | residual kinase activity (CDK13/CycK; 3 µM) | residual kinase activity (PAK4; 3 µM) | residual kinase activity (PAK7; 3 µM) | residual kinase activity (PDGFRα; 3 µM) | residual kinase activity (PRKG2; 3 µM) | residual kinase activity (TAOK2; 3 µM)
COc1ccnc2[nH]cc(-c3cc(N)nc(N)c3)c12 [meriolin 16] | 31 % of control | 5 % of control | 86 % of control | 74 % of control | 89 % of control | 81 % of control | 89 % of control | 60 % of control | 48 % of control | 7 % of control | 107 % of control | 89 % of control | – | – | – | – | – | –
c1ccc(CNc2cc(-c3c[nH]c4ncccc34)ccn2)cc1 [meriolin 36] | – | 12 % of control | – | 56 % of control | – | 42 % of control | – | 25 % of control | – | 14 % of control | – | 60 % of control | -10 % of control | 16 % of control | 9 % of control | 8 % of control | 2 % of control | 19 % of control
